Results on 5 compounds are retold here after patent US20100184852A1, “ORGANIC COMPOUNDS FOR TREATMENT OF DISORDERS CONNECTED TO IMPAIRED NEUROTRANSMISSION” (priority 2006, published 2010).

Assay [1] deals with T1, human serotonin re-uptake transporter (hSERT) (Homo sapiens, UniProt P31645).
T1 construct: host or cells: HEK-293
In words: Serotonin uptake inhibition in HEK-293 cells expressing hSERT. It is filed as cell-based. As to conditions: transfected HEK-293 cells; 20 nM (3H) serotonin, 30 minutes; average +/− s.e.m.; read-out: IC50 for tritiated serotonin uptake. On the procedure: HEK-293 cells stably expressing the human serotonin re-uptake transporter (hSERT) were obtained from R. Blakely, Vanderbilt University, USA. The cells were routinely grown in Dulbeco's Modified Eagles Medium, purchased from Bioconcept, Allschwil, Switzerland containing 10% fetal calf serum, penicillin, streptomycin, L-glutamine and the antibiotic G418 and passaged by trypsinisation. One day prior to the assay cells were seeded in the above mentioned medium. Immediately prior to the assay the medium was replaced by Krebs Ringers bicarbonate buffer, purchased from Sigma Chemicals Ltd., supplemented with 35 μM pargyline, 2.2 mM CaCl2, 1 mM ascorbic acid and 5 mM N-2-hydroxyethylpiperazine-N′-2-ethanesulfonic acid (buffer called “Hepes”). Serotonin uptake into the cells was determined by addition of radio-labeled (3H) serotonin (Amersham Biosciences GE Healthcare, Slough, UK) to a concentration of 20 nM, and incubation for 30 minutes at room temperature. Following removal of unincorporated label by gentle washing three times with the above buffer, incorporated serotonin was quantified by liquid scintillation counting.
The effect of the compounds of formula I on the serotonin uptake was determined by its inclusion in the assay at a range of concentrations between 0.03 and 100 μM for 10 minutes prior to and during the addition of (3H) serotonin/citalopram. Serotonin uptake via the transporter was inhibited by ligustilide, 3-butylphthalide, senkyunolide A, senkyunolide C, senkyunolide B, and cnidilide, respectively, in a dose dependent manner, with IC50 values as shown in Table 2.

Assay [2] concerns the target T2, Monoamine oxidase A (MAO-A) (Homo sapiens, UniProt P21397).
T2 sequence (P21397 1-527): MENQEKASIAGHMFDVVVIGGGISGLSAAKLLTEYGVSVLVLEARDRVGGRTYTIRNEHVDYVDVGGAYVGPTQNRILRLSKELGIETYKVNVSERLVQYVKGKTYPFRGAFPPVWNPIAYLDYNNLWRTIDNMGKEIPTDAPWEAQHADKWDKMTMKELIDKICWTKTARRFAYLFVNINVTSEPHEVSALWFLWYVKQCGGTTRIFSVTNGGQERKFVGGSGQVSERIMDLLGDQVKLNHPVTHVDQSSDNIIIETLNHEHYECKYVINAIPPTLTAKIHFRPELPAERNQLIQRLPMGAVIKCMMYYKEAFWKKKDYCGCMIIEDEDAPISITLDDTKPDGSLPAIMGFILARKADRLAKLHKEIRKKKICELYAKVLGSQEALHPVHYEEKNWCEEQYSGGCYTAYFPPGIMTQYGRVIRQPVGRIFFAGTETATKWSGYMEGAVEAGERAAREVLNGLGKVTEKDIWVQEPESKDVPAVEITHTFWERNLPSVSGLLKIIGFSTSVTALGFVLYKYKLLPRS
The assay can be described thus: Monoaminooxidase A inhibition (H2O2/vanillic acid/HRP readout). The format is biochemical. As to conditions: substrate p-tyramine 0.5 mM; +/− s.e.m.; read-out: IC50 [μM] for Inhibition of MAO-A. On the procedure:
(§1) The organic amines p-tyramine or benzylamine were used as substrates for the Monoamine oxidase A (MAO-A) and B (MAO-B) enzymes respectively. The H2O2 produced by this reaction was quantified by reaction with vanillic acid, catalysed by horse radish peroxidase (HRP).
(§2) The reactions were carried out in polystyrene microtitre plates. The MAO enzymes (final concentration 2 U/ml) were mixed with either p-tyramine (Sigma, final concentration 0.5 mM) or benzylamine (Sigma, final concentration 0.5 mM) as appropriate and the chromogenic solution (containing vanillic acid (Fluka), 4-aminoantipyrine (Fluka) and horse radish peroxidase (Sigma), final concentrations 0.25 mM, 0.125 mM and 1 U/ml respectively) in 0.2 M potassium phosphate buffer pH 7.6. The reactions were followed in a microtitre plate absorbance reader eg Spectramax M5 (Molecular Devices Corporation). Absorbance readings at 495 nm were taken every 15 seconds for 40 minutes and the initial reaction velocities calculated by linear regression using SOFTmaxPro (Molecular Devices Corporation).
(§3) The effect of ligustilide, 3-butylphthalide, senkyunolide C and cnidilide on the monoamine oxidase enzymes was determined by their inclusion in the assay at a range of concentrations between 0.03 and 100 μM for 10 minutes prior to and during the incubation with substrate. To determine the effect of the compounds on the HRP catalyzed portion of the reaction, the MAO enzyme was replaced by H2O2 (Molecular Probes, final concentration 0.2 mM). The reactions containing MAO-A and MAO-B were both inhibited by […] according to formula I in a dose dependent manner, whilst the control reaction, was unaffected. The measured IC50 values for inhibition of monoamine oxidase activity by ligustilide, 3-butylphthalide, senkyunolide C and enidilide, respectively, are shown in Table 3.

For assay [3], the target named is T3, Monoamine oxidase B (MAO-B) (Homo sapiens, UniProt P27338).
T3 sequence (P27338 1-520): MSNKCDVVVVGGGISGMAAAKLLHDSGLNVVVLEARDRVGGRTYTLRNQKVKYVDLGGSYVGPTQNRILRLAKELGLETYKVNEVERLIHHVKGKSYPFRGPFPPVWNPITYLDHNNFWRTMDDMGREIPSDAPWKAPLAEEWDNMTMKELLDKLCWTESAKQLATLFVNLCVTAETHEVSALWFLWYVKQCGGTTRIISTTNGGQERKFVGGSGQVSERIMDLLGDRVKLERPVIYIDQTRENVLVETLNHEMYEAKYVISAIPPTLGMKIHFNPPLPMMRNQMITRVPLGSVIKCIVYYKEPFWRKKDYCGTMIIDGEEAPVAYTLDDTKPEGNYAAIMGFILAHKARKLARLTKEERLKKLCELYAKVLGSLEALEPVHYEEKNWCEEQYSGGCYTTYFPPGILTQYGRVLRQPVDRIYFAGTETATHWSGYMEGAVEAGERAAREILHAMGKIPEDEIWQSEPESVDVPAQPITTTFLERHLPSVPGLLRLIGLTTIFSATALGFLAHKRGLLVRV
The assay can be described thus: Monoaminooxidase B inhibition (H2O2/vanillic acid/HRP readout). The format is biochemical. As to conditions: substrate benzylamine 0.5 mM; +/− s.e.m.; read-out: IC50 [μM] for Inhibition of MAO-B. Here is the method:
as §1, §2, §3

Another assay has as its system mice. In words: Marble burying test. It is filed as in vivo, mouse. As to conditions: 10 mg/kg p.o., −24, −5, −1 h. On the procedure: A celery seed oil extract rich in phthalides was tested in the marble burying test. A crude extract from celery seed oil (Apium graveolens) obtained by supercritical CO2 fluid extraction of the seed was bought from Guanzhou Honsea Sunshine Bio Science & Technology, Guangzhou, 510620, Peopole's Republic of China. This extract (66.15 g) was distilled for about 2 hours in a ca. 30 cm Kugelrohr at a temperature of 125° C., under a pressure of 0.02 mbar. The distillate contained 18.12% butylphthalide, 0.87% butylidenphthalide, 35.37% senkyanolide, 20.99% sedanolide, 2.23% C16-fatty acid and 3.14% oleic acid, based on the total weight of the celery seed oil extract.
The marble burying test was performed in Type II cages (16×22 cm), which were filled with normal rodent bedding material, up to a depth of 4 cm, and the bedding was flattened gently by hand to ensure an even surface. […]
At the start of the test, mice were individually placed into the test cages and left to explore for 30 min. At the end of the test, the mice were removed from the cages and the number of marbles which have been buried (i.e. at least ⅔ covered with bedding) were counted. […]
Celery seed oil extract was evaluated after sub-chronic oral administration at 50, 100, 200, 300 mg/kg with fluoxetine at 10 mg/kg as reference substance and corn oil as vehicle. […]

T1 sequence (P31645 whole entry): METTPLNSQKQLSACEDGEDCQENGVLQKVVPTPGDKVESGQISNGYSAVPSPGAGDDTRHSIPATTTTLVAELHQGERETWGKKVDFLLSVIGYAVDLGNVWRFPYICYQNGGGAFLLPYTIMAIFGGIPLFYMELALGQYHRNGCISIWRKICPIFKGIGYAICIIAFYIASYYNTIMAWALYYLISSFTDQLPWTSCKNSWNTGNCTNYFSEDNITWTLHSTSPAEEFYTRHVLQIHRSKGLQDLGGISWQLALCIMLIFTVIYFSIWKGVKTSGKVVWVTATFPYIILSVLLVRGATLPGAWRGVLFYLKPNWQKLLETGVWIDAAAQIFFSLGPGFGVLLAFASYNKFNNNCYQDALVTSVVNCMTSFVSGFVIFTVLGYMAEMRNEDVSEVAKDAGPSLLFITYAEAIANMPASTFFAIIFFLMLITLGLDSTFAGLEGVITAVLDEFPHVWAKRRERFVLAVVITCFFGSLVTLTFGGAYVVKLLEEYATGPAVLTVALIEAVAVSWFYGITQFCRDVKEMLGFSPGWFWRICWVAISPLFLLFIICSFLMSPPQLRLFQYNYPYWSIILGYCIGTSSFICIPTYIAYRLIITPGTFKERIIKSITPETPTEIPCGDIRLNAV

As to `CCCC[C@@H]1OC(=O)[C@@H]2C=CCC[C@H]12` [Cnidilide], the values for the half-maximal inhibitory concentration (IC50) in assay [1], in assay [2] and in assay [3] were 40.5 µM, above 100 µM and 109 µM, respectively.

On to `CNCCC(Oc1ccc(C(F)(F)F)cc1)c1ccccc1` (stereo not drawn) [Fluoxetine], for which, in the assay on mice, the “% MARBLES BURIED” value was −78%. Turning to `CCC/C=C1\OC(=O)c2ccc(O)cc21` [Senkyunolide C], the half-maximal inhibitory concentration (IC50) in assay [1] was 31.4 µM; in assay [2], 2.72 µM; in assay [3], 2.14 µM.

Consider `CCC/C=C1\OC(=O)c2c(O)cccc21` [Senkyunolide B], for which the concentration for half-maximal inhibition (IC50) in assay [1] worked out at 75 µM.

Consider `CCCC[C@@H]1OC(=O)C2=C1CCC=C2` [Senkyunolide A], for which the IC50 in assay [1] was 32.5 µM.

Usually IC50 stands for the concentration that inhibits the measured activity by half.
